# According to US20230159931A1, “TARGETING THE PALMOTYLATION/DEPALMOTYLATION CYCLE TO TREAT INFLAMMATORY DISEASES” (CORNELL UNIVERSITY, priority 2020, published 2023):
# “Also recorded” adds a separate entry of the source.
# Assays:
# [1] = system: STAT3 target genes (RORC and CCND1); experiment: Expression of STAT3 target genes under TH17 differentiation conditions (qPCR); type: cell-based; conditions: mouse spleen cells
# Method: Splenocytes were isolated from mice by classic methods. In brief, the excised spleen was sliced into small pieces and placed onto a strainer (352350, Thermo Fisher) attached to a 50 ml conical tube. The sliced spleen was pressed through the strainer using the plunger end of a syringe and the cells were washed through the strainer with excess 4° C. PBS. The cell suspension was centrifuged at 500 g for 5 min at 4° C. The cell pellet was suspended in 2 ml of red blood cell lysing buffer (R7757, Sigma) for 5 min at RT and diluted with 30 ml PBS. The cells were centrifuged at 500 g for 5 min at RT. The cell pellet was suspended in 20 ml of 37° C. DMEM media, mixed well with 10 ml of Percoll density gradient media (17089102, VWR) and centrifuged at 2,500 g for 5 min at RT. The collected cells were seeded in 37° C. RPMI 1640 medium (12633012, Gibco) supplemented with 10% FBS at 5×10^6 cells per ml. Splenocytes were cultured under TH17-polarizing conditions: 3 ng ml^−1 TGF-β (100-21, PeproTech), 40 ng ml^−1 IL-6 (200-06, PeproTech), 30 ng ml^−1 IL-23 (200-23, PeproTech), 20 ng ml^−1 tumour necrosis factor (TNF) (300-01A, PeproTech) and 10 ng ml^−1 IL-1β (200-01B, PeproTech). […]
# Because STAT3 is important for TH17 cell differentiation, the inventors evaluated whether the palmitoylation-depalmitoylation cycle of STAT3 promotes the generation of TH17 cells from mouse spleen cells. […]
# [2] = system: TH17 cell differentiation; experiment: TH17 cell differentiation of mouse splenocytes by flow cytometry (CD4- and IL-17-positive cells); type: cell-based; conditions: cytokine cocktail and different concentrations of ML349 for 4 days
# Method: FIGS. 3A-3E. The STAT3 palmitoylation-depalmitoylation cycle promotes TH17 cell differentiation. (A) DHHC7 promotes phosphorylation of wild-type STAT3, but not of the C108S mutant, in mouse splenocytes. Left, STAT3 and p-STAT3 blots; right, quantification of the relative p-STAT3 levels. (B) TH17 cell differentiation was quantified in the splenocyte samples in A by flow cytometry. […] Mouse splenocytes were treated with a cytokine cocktail (3 ng ml^−1 TGF-β, 40 ng ml^−1 IL-6, 30 ng ml^−1 IL-23, 20 ng ml^−1 TNF and 10 ng ml^−1 IL-1β) and different concentrations of ML349 for 4 days, then collected and analysed by flow cytometry to detect CD4- and IL-17-positive cells. (D) DHHC7 knockout in splenocytes inhibits TH17 cell differentiation. Wild-type and DHHC7-knockout mouse splenocytes were treated with a cytokine cocktail for 4 days to initiate differentiation, then the cells were collected and analyse by flow cytometry to detect CD4- and IL-17-positive cells. (E) Left, STAT3 and p-STAT3 blots of wild-type and DHHC7-knockout splenocytes. Right, quantification of the relative p-STAT3 levels. Data are mean±s.e.m. **P<0.01.
# Splenocytes were isolated from mice by classic methods. […]
# For FACS analysis, flow cytometry was performed using 1×10^6 cells per sample. […] The cells were detected by Attune Flow Cytometer (Thermo Fisher) and analysed with FCS Express 6 software (De Novo Software).
# [3] = Tolerability of ML349 in mice; type: in vivo; conditions: 50 mg kg^−1, mice
# From the text: The inventors tested whether the pharmacological inhibition of APT2 with ML349 could reduce dextran sulfate sodium (DSS)-induced colitis in mice, an experimental model for IBD.
smiles,measurement,setting,value
COc1ccc(N2CCN(C(=O)c3cc4c(s3)-c3ccccc3S(=O)(=O)C4)CC2)cc1 [ML349],expression of STAT3 target genes (RORC and CCND1),[1],significantly decreased
same,differentiation of TH17 cells,[2],significantly decreased; also recorded: decreases TH17 cell differentiation in a dose-dependent manner
same,tolerability,[3],well tolerated
